The target of assay [1] is T1, microtubule proteins originated from swine brain (Sus scrofa, UniProt P02550+P02554).
T1 construct: Microtubule proteins was extracted from swine brain by the Shelansky method; from tissue; host or cells: swine brain
The experiment in a line: Tubulin polymerization inhibitory test (turbidity measurement). The assay is classed as biochemical. The conditions noted are these: microtubule proteins 2 mg/ml, GTP 1 mM, 37° C. for 30 min, absorbance at 340 nm; read-out: IC50 (tubulin polymerization inhibition) (converted). The protocol:
Tubulin polymerization inhibitory test using microtubule proteins originated from swine brain: Microtubule proteins was extracted from swine brain by the Shelansky method(Tanpakusitu jikkenhou, Zoku-Seikagaku Jikken Kouza, Vol.6, “Structure and Function of Cytoskeleton” (1st Vol.), Tokyo Kagaku Dojin). Polymerization of microtubule proteins was assayed by turbidity measurement.
Change in turbidity can be measured by an absorptiometer. The compounds of the present invention were dissolved in dimethylsulfoxide to prepare their test solutions. To 245 μl of a RB solution containing microtubule proteins(2 mg/ml)and GTP(1 mM) was added 5μl of either an above test solution or dimethylsulfoxide to prepare a sample, which was incubated at 37° C. for 30 min. […] Absorbance at 340 nm of the compound was previously measured.
Inhibitory Rate(%)=[1−(T−Cmin)/(Cmax−Cmin)]×100
where T is absorbance of the incubated sample with a test compound, Cmax is absorbance of the incubated sample without the compound, and Cmin is the non-incubated sample without the compound.

Assay [2] has as its system collagen-induced arthritis in mice. Briefly: Prophylactic experiment of collagen-induced arthritis in mice. The conditions noted are these: 50 mg/kg orally once a day for 5 weeks, last day of test. The assay is classed as in vivo. The protocol: The suspension of M. tuberculosis H37RA in Freund […] adjuvant (2 mg/ml) was mixed with 0.3% typeII collagen (extracted from bovine articular cartilage, Collagen Gijutsu KensyU Kai) in their equal amounts to form an emulsion, 0.1 ml of which was injected subcutaneously into the base of the tail of mice to sensitize it. After twenty-one days, 0.3% type II collagen was diluted with physiological saline solution to the one sixth concentration of the solution, 0.2 ml of which was injected intraperitoneally to sensitize secondarily. The mice that the first sensitizations caused to fall into arthritis were excluded from the test. The suspensions of the compounds(in the Example 13, 27, and 28) in 0.5% sodium carboxy methylcellulose (CMC—Na) were administrated orally to the test group mice once a day for 5 weeks from the day after the second sensitization. 0.5% CMC—Na solutions were administrated to the control group mice to be compared with. Each group was composed of eight mice. […] Scores and their standards are as follows.
1: Tumefaction or rubor in only one finger(or heel)
2: Tumefaction or rubor in two or above fingers (or heels) or in parts of fore (or hind) paw(s)
3: Tumefaction or rubor in the wholes of fore (or hind) paw(s) including joints
4: Ankylosis in the joints of finger(s) (or heel(s)) or fore (or hind) paw(s)

For assay [3], the system named is A2780 (Humane Ovarian Cancer Cell). The experiment in a line: Anti-tumor in vitro test using A2780 (MTT). The assay is classed as cell-based. The settings on record: Homo sapiens, A2780, 72 h, 3 days incubation, absorbance at 540 nm, read-out: IC50 (A2780 growth inhibition). The protocol:
A2780 cells that were suspended on a RPMI 1640 culture medium containing 10% calf serum, penicillin (50 U/ml), and streptomycin (50 μg/ml were seeded in a 96 well flat microplate by 1000 cells (0.2 ml) well, and cultured in a 5% carbon dioxide atmospheric incubator at 37° C. for 1 day. The compounds of the present invention that were dissolved in dimetylsulfoxide anddiluted with a RPMI 1640 containing 10% calf serum to prepare the samples, provided that dimetylsulfoxide was restricted to 0.2% and below in concentration.
The Supernatant liquids of the above A2780 cells wells were removed by aspiration, and then each 0. 2 ml of the prepared samples were added to the wells, which were incubated in a 5% carbon dioxide atmospheric incubator at 37° C. for 3 days. After the incubation, each 0.01 ml of MTT solutions(3-(4,5-dimethylthiazole-2-yl)-2,5-dipheny-ltetra zolium bromide, 5 mg/ml) were added to the wells, which were incubated for another 2 hrs. After the supernatant liquids in the wells were removed by aspiration, the formazans formed in the wells were dissolved in 0.1 ml of dimetylsulfoxide, and absorbances at 540 nm were measured by a micro plate reader to determine indices of live cells counts in the wells.
Inhibitory Rate(%)=[(C−T)/C]×100
where T is absorbance in the well with a test compound and C is absorbance in the well without the compound.

Molecules are shown by their SMILES. Values after ≈ are worked out from the molar mass of the structure shown.

T1 sequence (P02550 whole entry): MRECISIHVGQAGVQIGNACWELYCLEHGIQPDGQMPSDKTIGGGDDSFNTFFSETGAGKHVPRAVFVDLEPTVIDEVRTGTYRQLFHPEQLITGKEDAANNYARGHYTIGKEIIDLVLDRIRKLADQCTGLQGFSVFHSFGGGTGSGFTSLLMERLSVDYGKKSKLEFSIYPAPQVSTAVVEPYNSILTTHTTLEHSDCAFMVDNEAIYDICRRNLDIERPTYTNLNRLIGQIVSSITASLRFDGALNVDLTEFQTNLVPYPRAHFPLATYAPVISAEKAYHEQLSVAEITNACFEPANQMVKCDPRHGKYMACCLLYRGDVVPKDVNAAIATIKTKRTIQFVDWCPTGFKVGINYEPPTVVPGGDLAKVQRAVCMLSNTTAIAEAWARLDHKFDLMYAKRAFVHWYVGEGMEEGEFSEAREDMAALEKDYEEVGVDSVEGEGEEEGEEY
T1 sequence (P02554 whole entry): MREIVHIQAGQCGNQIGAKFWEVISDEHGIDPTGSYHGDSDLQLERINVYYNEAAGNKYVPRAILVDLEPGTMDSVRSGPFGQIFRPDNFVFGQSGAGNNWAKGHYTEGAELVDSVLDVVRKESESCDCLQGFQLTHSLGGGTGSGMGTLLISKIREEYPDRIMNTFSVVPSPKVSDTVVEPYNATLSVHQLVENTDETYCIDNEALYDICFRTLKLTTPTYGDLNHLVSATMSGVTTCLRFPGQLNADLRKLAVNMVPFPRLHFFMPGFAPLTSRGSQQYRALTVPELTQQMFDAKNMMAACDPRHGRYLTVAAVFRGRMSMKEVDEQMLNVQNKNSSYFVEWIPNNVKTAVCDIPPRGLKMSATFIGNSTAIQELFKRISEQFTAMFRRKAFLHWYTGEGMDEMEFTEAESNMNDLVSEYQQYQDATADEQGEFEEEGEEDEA

What is called IC50 is the concentration needed to halve the response being measured. For the molecule `CCc1onc(C)c1C(=O)Nc1ccccc1NS(=O)(=O)c1ccc(OC)cc1` [Example 28, N-[2-(4-Methoxybenzenesulfonamide)phenyl]-5-ethyl-3-methyl-4-isoxazole Carboxamide], the IC50 in assay [1] was 3.13 µM; in assay [3], 0.013 µg/mL (≈ 0.0313 µM). For the same molecule, the “Averaged score (arthritis, 0 to 4 per limb, maximum 16)” value in assay [2] was found to be 3.0 ± 1.1.

The values above are taken from patent US6458960B1, “Sulfonamide derivatives” (Nippon Kayaku Kabushiki Kaisha, priority 1997, dated 2002).
